Experimental data reported in PubChem BioAssay AID296 (DTP/NCI, 2004).
Several values for one entry are separate records, joined by “and”; a condition that tells them apart may be missing. Equal entries are not always repeated. Results filed as inconclusive are left out.

System: MX-1 breast xenograft, nude mice, tumor weight T/C
Test: NCI In Vivo Anticancer Drug Screen. Data for tumor model Human Mammary Carcinoma MX-1 Xenograft (intrarenal inoculation) in NU/NU Swiss (nude) mice
Conditions: endpoint: mean tumor weight change, higher = larger tumour
Procedure: The antitumor activity of compounds was measured in mice bearing transplantable tumors. Survival or tumor size were measured and the results are expressed as the measurement made in the treated group (T) divided by the measurement made in the vehicle treated control group (C). The tumor model used in this assay is Human Mammary Carcinoma MX-1 Xenograft (intrarenal inoculation) in NU/NU Swiss (nude) mice

[1] = dose: 300.0 mg/kg/injection, schedule: Q04DX003 (sc), vehicle: saline with Tween-80
[2] = dose: 1200.0 mg/kg/injection, schedule: Q04DX003 (sc), vehicle: saline with Tween-80
[3] = dose: 2400.0 mg/kg/injection, schedule: Q04DX003 (sc), vehicle: suspension in saline
[4] = dose: 600.0 mg/kg/injection, schedule: Q04DX003 (sc), vehicle: saline with Tween-80
[5] = dose: 2400.0 mg/kg/injection, schedule: Q04DX003 (sc), vehicle: saline with Tween-80

With `CO[C@H](/C(C)=C/C=C/C(C)=C/c1coc(C)n1)[C@H](C)[C@H]1C[C@@H](O)[C@@]2(C)O[C@H]2/C=C/[C@@H](C)[C@@H]2C[C@@H](CC(=O)O2)C[C@H]2O[C@@H]2C(=O)O1` the T/C (dose: 0.25 mg/kg/injection, schedule: Q04DX003 (ip), vehicle: Klucel (hydroxypropylcellulose) (HPC)) was 34 % of control, the T/C (dose: 0.5 mg/kg/injection, schedule: Q04DX003 (ip), vehicle: Klucel (hydroxypropylcellulose) (HPC)) was 2 % of control and the T/C (dose: 1.0 mg/kg/injection, schedule: Q04DX003 (ip), vehicle: Klucel (hydroxypropylcellulose) (HPC)) was 3 % of control. The T/C (dose: 2.0 mg/kg/injection, schedule: Q04DX003 (ip), vehicle: Klucel (hydroxypropylcellulose) (HPC)) was -26 % of control.
For `CC1=C(/C=C/C(C)=C/C=C/C(C)=C/C=O)C(C)(C)CCC1`, the T/C (dose: 150.0 mg/kg/injection, schedule: Q04DX003 (sc), vehicle: saline with Tween-80) was 88 % of control, the T/C [1] was 98 % of control and the T/C [2] was 53 % of control.
In the case of `COC1/C=C/O[C@@]2(C)Oc3c(C)c(O)c4c(O)c(cc(O)c4c3C2=O)NC(=O)/C(C)=C\C=C\[C@H](C)C(O)[C@@H](C)[C@@H](O)[C@@H](C)[C@H](OC(C)=O)[C@@H]1C` (stereo partly specified), the T/C (dose: 600.0 mg/kg/injection, schedule: Q04DX003 (sc), vehicle: suspension in saline) is reported as 153 % of control and the T/C [3] is reported as 150 % of control.
`CC(=O)OCN(C)C=O` was tested, and the T/C (dose: 300.0 mg/kg/injection, schedule: Q01DX010 (sc), vehicle: water) was 100 % of control, the T/C (dose: 600.0 mg/kg/injection, schedule: Q01DX010 (sc), vehicle: water) was 54 % of control and the T/C (dose: 1200.0 mg/kg/injection, schedule: Q01DX010 (sc), vehicle: water) was 18 % of control. For the same compound, the T/C (dose: 2400.0 mg/kg/injection, schedule: Q01DX010 (sc), vehicle: water) was -8 % of control.
With `COc1cc(NCCCCCCCNC(C)C)c2nccc(C)c2c1` the T/C (dose: 37.5 mg/kg/injection, schedule: Q04DX003 (sc), vehicle: saline) was 93 % of control, the T/C (dose: 75.0 mg/kg/injection, schedule: Q04DX003 (sc), vehicle: saline) was 76 % of control and the T/C (dose: 150.0 mg/kg/injection, schedule: Q04DX003 (sc), vehicle: saline) was 66 % of control.
In the case of `c1cc2c(c(CC3CO3)c1CC1CO1)OCCOCCOCCOCCO2` (stereo unspecified), the T/C (dose: 75.0 mg/kg/injection, schedule: Q04DX003 (ip), vehicle: saline + alcohol) is reported as 57 % of control, the T/C (dose: 150.0 mg/kg/injection, schedule: Q04DX003 (ip), vehicle: saline + alcohol) is reported as 65 % of control and the T/C (dose: 300.0 mg/kg/injection, schedule: Q04DX003 (ip), vehicle: saline + alcohol) is reported as 78 % of control.
For `CC(=O)c1cccc(NC2C(N)C(NC(=O)N(C)C)(C(C)O)C(C)(O)C2(O)COC(=O)c2c(C)cccc2O)c1` (stereo unspecified), the T/C (dose: 6.25 mg/kg/injection, schedule: Q04DX003 (ip), vehicle: suspension in saline) was 62 % of control, the T/C (dose: 12.5 mg/kg/injection, schedule: Q04DX003 (ip), vehicle: suspension in saline) was 85 % of control and the T/C (dose: 25.0 mg/kg/injection, schedule: Q04DX003 (ip), vehicle: suspension in saline) was 34 % of control.
With `COc1cc2cc3cc4cc(OC)c(OC)cc4c(C)[n+]3cc2cc1OC` (tested in a mixture with another compound) the T/C (dose: 1200.0 mg/kg/injection, schedule: Q04DX003 (sc), vehicle: suspension in saline) was 61 % of control and the T/C [3] was 84 % of control.
For `CC[C@H](CC[C@@H](C)C1CC[C@H]2[C@@H]3CC=C4C[C@@H](OP(=O)(N5CC5)N5CC5)CC[C@]4(C)[C@H]3CC[C@]12C)C(C)C` (stereo partly specified), the T/C [1] was 71 % of control, the T/C [4] was 113 % of control and the T/C [2] was 65 % of control. For the same compound, the T/C [5] was 62 % of control.
With `CCOC(=O)c1c[nH]c2oc(/C=N/N3CC(CN4CCOCC4)OC3=O)cc2c1=O` (stereo unspecified) the T/C (dose: 50.0 mg/kg/injection, schedule: Q01DX010 (sc), vehicle: saline) was 116 % of control, the T/C (dose: 100.0 mg/kg/injection, schedule: Q01DX010 (sc), vehicle: saline) was 77 % of control and the T/C (dose: 200.0 mg/kg/injection, schedule: Q01DX010 (sc), vehicle: saline) was 98 % of control. For the same compound, the T/C (dose: 400.0 mg/kg/injection, schedule: Q01DX010 (sc), vehicle: saline) was 72 % of control.
In the case of `O=c1[nH]c(=O)n([C@H]2CCCO2)cc1F`, the T/C (dose: 100.0 mg/kg/injection, schedule: Q01DX010 (sc), vehicle: Klucel (hydroxypropylcellulose) (HPC)) is reported as 112 % of control, the T/C (dose: 200.0 mg/kg/injection, schedule: Q01DX010 (sc), vehicle: Klucel (hydroxypropylcellulose) (HPC)) is reported as 97 % of control and the T/C (dose: 800.0 mg/kg/injection, schedule: Q01DX010 (sc), vehicle: Klucel (hydroxypropylcellulose) (HPC)) is reported as 123 % of control.
For `COc1cccc2c1C(=N)c1c(O)c3c(c(O)c1C2=O)C[C@@](O)(C(C)=O)C[C@@H]3OC1CC(N)C(O)C(C)O1` (stereo partly specified), the T/C (dose: 4.0 mg/kg/injection, schedule: Q01DX010 (sc), vehicle: water) was 62 % of control and the T/C (dose: 16.0 mg/kg/injection, schedule: Q01DX010 (sc), vehicle: water) was 13 % of control and 21 % of control.
For `S=c1nc[nH]c2nc[nH]c12`, the T/C (dose: 5.25 mg/kg/injection, schedule: Q01DX010 (sc), vehicle: Klucel (hydroxypropylcellulose) (HPC)) was 118 % of control and the T/C (dose: 12.5 mg/kg/injection, schedule: Q01DX010 (sc), vehicle: Klucel (hydroxypropylcellulose) (HPC)) was 72 % of control and 79 % of control.
For `CCCCCCCCCCCCCCCCCC(=O)Nc1ccn(C2OC(CO)C(O)C2O)c(=O)n1` (stereo unspecified), the T/C [4] was 11 % of control and 15 % of control and 24 % of control and the T/C [2] was 3 % of control and 8 % of control.
In the case of `CC(C)(C)NC(C1=CC(C)(C)c2ccccc2C1=O)c1ccccc1` (stereo unspecified), the T/C (dose: 150.0 mg/kg/injection, schedule: Q04DX003 (ip), vehicle: Klucel (hydroxypropylcellulose) (HPC)) is reported as 87 % of control and the T/C (dose: 300.0 mg/kg/injection, schedule: Q04DX003 (ip), vehicle: Klucel (hydroxypropylcellulose) (HPC)) is reported as 75 % of control.
With `Cc1ccc(NCC2(/N=C/c3ccccc3)OC(CO)C(O)C2O)cc1` (stereo unspecified) the T/C (dose: 200.0 mg/kg/injection, schedule: Q04DX003 (sc), vehicle: Klucel (hydroxypropylcellulose) (HPC)) was 109 % of control, the T/C (dose: 400.0 mg/kg/injection, schedule: Q04DX003 (sc), vehicle: Klucel (hydroxypropylcellulose) (HPC)) was 124 % of control and the T/C (dose: 800.0 mg/kg/injection, schedule: Q04DX003 (sc), vehicle: Klucel (hydroxypropylcellulose) (HPC)) was 94 % of control. For the same compound, the T/C (dose: 1600.0 mg/kg/injection, schedule: Q04DX003 (sc), vehicle: Klucel (hydroxypropylcellulose) (HPC)) was 101 % of control.
With `CC1=C(C)C(=O)O[C@@H]([C@](C)(O)[C@]2(O)CC[C@@]3(O)[C@@H]4C[C@H]5O[C@]56[C@@H](O)C=CC(=O)[C@]6(C)[C@H]4CC[C@]23C)C1` the T/C (dose: 16.0 mg/kg/injection, schedule: Q01DX010 (sc), vehicle: saline) was 155 % of control, the T/C (dose: 32.0 mg/kg/injection, schedule: Q01DX010 (sc), vehicle: saline) was 95 % of control and the T/C (dose: 64.0 mg/kg/injection, schedule: Q01DX010 (sc), vehicle: saline) was 75 % of control.
In the case of `CC(=O)Oc1c(C)[nH]ccc1=O`, the T/C (dose: 200.0 mg/kg/injection, schedule: Q04DX003 (sc), vehicle: suspension in saline) is reported as 72 % of control, the T/C (dose: 400.0 mg/kg/injection, schedule: Q04DX003 (sc), vehicle: suspension in saline) is reported as 87 % of control and the T/C (dose: 800.0 mg/kg/injection, schedule: Q04DX003 (sc), vehicle: suspension in saline) is reported as 79 % of control.
With `c1cc(OCC2CO2)ccc1OCC1CO1` (stereo unspecified) the T/C [1] was 110 % of control, the T/C [4] was 103 % of control and the T/C [2] was 92 % of control. For the same compound, the T/C [5] was 106 % of control.
For `O=C(Nc1ccccc1C(=O)O)c1cc([N+](=O)[O-])cc([N+](=O)[O-])c1`, the T/C (dose: 100.0 mg/kg/injection, schedule: Q04DX003 (sc), vehicle: saline with Tween-80) was 101 % of control and the T/C (dose: 200.0 mg/kg/injection, schedule: Q04DX003 (sc), vehicle: saline with Tween-80) was 120 % of control.
`N=[N+]=CC(=O)OCC(N)C(=O)O` (stereo unspecified) was tested, and the T/C (dose: 3.13 mg/kg/injection, schedule: Q01DX010 (sc), vehicle: saline) was -57 % of control and -53 % of control, the T/C (dose: 6.25 mg/kg/injection, schedule: Q01DX010 (sc), vehicle: saline) was -69 % of control and -54 % of control and the T/C (dose: 12.5 mg/kg/injection, schedule: Q01DX010 (sc), vehicle: saline) was -81 % of control and -71 % of control. For the same compound, the T/C (dose: 25.0 mg/kg/injection, schedule: Q01DX010 (sc), vehicle: saline) was -80 % of control.
In the case of `COc1cc2c(cc1O)N=C[C@@H]1CCC(O)N1C2=O` (mixture of isomers), the T/C (dose: 1.0 mg/kg/injection, schedule: Q01DX010 (sc), vehicle: saline) is reported as 295 % of control, the T/C (dose: 2.0 mg/kg/injection, schedule: Q01DX010 (sc), vehicle: saline) is reported as 197 % of control and the T/C (dose: 4.0 mg/kg/injection, schedule: Q01DX010 (sc), vehicle: saline) is reported as 214 % of control. For the same compound, the T/C (dose: 8.0 mg/kg/injection, schedule: Q01DX010 (sc), vehicle: saline) was 187 % of control.
`O=C(CO)c1ccc([N+](=O)[O-])cc1` was tested, and the T/C (dose: 100.0 mg/kg/injection, schedule: Q01DX010 (sc), vehicle: saline with Tween-80) was 95 % of control, the T/C (dose: 200.0 mg/kg/injection, schedule: Q01DX010 (sc), vehicle: saline with Tween-80) was 114 % of control and the T/C (dose: 400.0 mg/kg/injection, schedule: Q01DX010 (sc), vehicle: saline with Tween-80) was 67 % of control. For the same compound, the T/C (dose: 800.0 mg/kg/injection, schedule: Q01DX010 (sc), vehicle: saline with Tween-80) was 63 % of control.
